Test results reported in patent US20150299185A1, “NOVEL IMIDAZOPYRIDINE DERIVATIVES AS A TYROSINE KINASE INHIBITOR” (HANMI PHARM. CO., LTD., priority 2011, published 2015).
pIC50: −log10 of the molar value.

What was measured:
[1] = target: T1, JAK3 (Homo sapiens, UniProt P52333); assay: JAK3 inhibitory activity, Z-Lyte Kinase Assay Kit; type: biochemical; conditions: 60 minutes at room temperature, JAK3 enzyme (Invitrogen PV3855)
T1 construct: purchased Invitrogen PV3855
Experimental: (§1) Evaluation of JAK3 and BTK Inhibitory Activity
(§2) The compounds prepared in Examples 1 to 20 were tested for JAK3 and BTK inhibitory activity. Kinase inhibitory activity was measured by using Z-Lyte Kinase Assay Kit (Invitrogen), and JAK3 and BTK enzymes were purchased from Invitrogen (PV3855, PV3190).
(§3) Specifically, the compounds of Examples 1 to 20 were diluted with a 4% aqueous solution of DMSO to obtain solutions with concentrations in the range of 1˜0.0001 μM. Each kinase was diluted to 1˜10 ng/assay, and ATP was diluted to form a kinase buffer (50 mM HEPES, pH 7.4; 10 mM MgCl2; 1 mM EGTA; 0.01% BRIJ-35) by calculating an approximate Kd value. The assays were performed in 384-well polystyrene flat-bottomed plates. 5 μL of the diluted solution of the compound, peptide substrate having a suitable concentration, 10 μL of mixed kinase solution and 5 μL of ATP solution having a concentration of 5 to 300 μM were added to the sample, and allowed to react in a mixer for 60 minutes at room temperature. After 60 minutes, 10 μL of fluorescent labeling reagents was added to each mixture so as to allow fluorescent labeling of peptide substrates, followed by adding a finishing solution to complete the reaction. The fluorescence level was measured using a Molecular Device with an excitation filter at 400 nm, and an emission filter at 520 nm. The kinase inhibitory activities of the compounds were calculated in phosphorylation rates between 0˜100% against the control group (staurosporine or each of kinase inhibitor) with reference to the protocol of the kit, and percentage inhibition was calculated and plotted against concentration (x-axis) to calculate 50% inhibitory concentration (IC50). The IC50 values were obtained by using Microsoft Excel, and the results are shown in Table 5, wherein A: IC50≦50 nM, B: IC50=50˜100 nM, C: IC50=100˜1,000 nM, and D: IC50≧1,000 nM.

[2] = target: T2, BTK (Homo sapiens, UniProt Q06187); assay: BTK inhibitory activity, Z-Lyte Kinase Assay Kit; type: biochemical; conditions: 60 minutes at room temperature, BTK enzyme (Invitrogen PV3190)
T2 construct: purchased Invitrogen PV3190
T2 sequence (Q06187 whole entry): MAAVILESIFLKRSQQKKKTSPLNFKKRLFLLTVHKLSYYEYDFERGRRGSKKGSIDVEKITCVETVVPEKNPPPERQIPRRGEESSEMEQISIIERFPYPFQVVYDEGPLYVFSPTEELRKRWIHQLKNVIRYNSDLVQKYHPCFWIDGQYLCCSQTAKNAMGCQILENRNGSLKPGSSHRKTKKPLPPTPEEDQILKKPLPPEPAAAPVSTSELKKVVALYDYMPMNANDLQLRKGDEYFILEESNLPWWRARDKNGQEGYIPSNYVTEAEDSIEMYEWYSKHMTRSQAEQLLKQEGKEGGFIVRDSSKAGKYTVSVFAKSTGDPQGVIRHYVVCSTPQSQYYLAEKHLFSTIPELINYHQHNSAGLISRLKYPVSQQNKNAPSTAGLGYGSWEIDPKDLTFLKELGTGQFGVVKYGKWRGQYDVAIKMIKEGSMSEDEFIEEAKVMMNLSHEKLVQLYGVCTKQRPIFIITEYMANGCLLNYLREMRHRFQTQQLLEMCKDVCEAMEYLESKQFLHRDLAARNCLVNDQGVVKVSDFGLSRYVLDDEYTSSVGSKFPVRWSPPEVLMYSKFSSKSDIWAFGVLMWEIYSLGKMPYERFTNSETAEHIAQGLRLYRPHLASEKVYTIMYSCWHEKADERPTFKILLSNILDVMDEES
Experimental: as §1, §2, §3

T1 sequence (P52333 781-1124 limits assumed): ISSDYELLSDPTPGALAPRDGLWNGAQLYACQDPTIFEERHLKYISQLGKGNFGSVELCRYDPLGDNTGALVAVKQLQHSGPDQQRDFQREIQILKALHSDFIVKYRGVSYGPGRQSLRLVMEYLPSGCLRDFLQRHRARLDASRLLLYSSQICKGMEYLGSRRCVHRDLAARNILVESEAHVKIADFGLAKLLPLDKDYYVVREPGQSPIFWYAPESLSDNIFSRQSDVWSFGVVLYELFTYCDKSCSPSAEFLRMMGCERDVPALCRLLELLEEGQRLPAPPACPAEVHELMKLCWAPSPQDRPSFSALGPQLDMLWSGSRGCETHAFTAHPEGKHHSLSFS

| SMILES | pIC50 [1] | pIC50 [2] |
| --- | --- | --- |
| C=CC(=O)Nc1cccc(Oc2c(Cl)cnc3[nH]c(-c4ccc(N5CCN(C)CC5)cc4)nc23)c1 [Example 1, N-(3-(6-chloro-2-(4-(4-methylpiperazin-1-yl)phenyl)-3H-imidazo[4,5-b]pyridin-7-yloxy)phenyl)acrylamide] | 7.00 to 7.30 | ≥ 7.30 |
| C=CC(=O)Nc1cccc(Oc2c(Cl)cnc3[nH]c(-c4ccc(N5CCC(O)CC5)cc4)nc23)c1 [Example 2, N-(3-(6-chloro-2-(4-(4-hydroxypiperidin-1-yl)phenyl)-3H-imidazo[4,5-b]pyridin-7-yloxy)phenyl)acrylamide] | 6.00 to 7.00 | 7.00 to 7.30 |
| C=CC(=O)Nc1cccc(Oc2c(Cl)cnc3[nH]c(-c4ccc(C(=O)N5CCN(C)CC5)cc4)nc23)c1 [Example 3, N-(3-(6-chloro-2-(4-(4-methylpiperazin-1-carbonyl)phenyl)-3H-imidazo[4,5-b]pyridin-7-yloxy)phenyl)acrylamide] | 6.00 to 7.00 | ≥ 7.30 |
| C=CC(=O)Nc1cccc(Oc2c(Cl)cnc3[nH]c(-c4ccc(C(=O)N5CCOCC5)cc4)nc23)c1 [Example 4, N-(3-(6-chloro-2-(4-(morpholin-4-carbonyl)phenyl)-3H-imidazo[4,5-b]pyridin-7-yloxy)phenyl)acrylamide] |  | ≥ 7.30 |
| C=CC(=O)Nc1cccc(Oc2c(Cl)cnc3[nH]c(-c4ccc(NC5CCN(C)CC5)cc4)nc23)c1 [Example 5, N-(3-(6-chloro-2-(4-(1-methylpiperidin-4-ylamino)phenyl)-3H-imidazo[4,5-b]pyridin-7-yloxy)phenyl)acrylamide] | ≥ 7.30 | ≥ 7.30 |
| C=CC(=O)Nc1cccc(Oc2c(Cl)cnc3[nH]c(-c4ccc(N(C)C)cc4)nc23)c1 [Example 6, N-(3-(6-chloro-2-(4-(dimethylamino)phenyl)-3H-imidazo[4,5-b]pyridin-7-yloxy)phenyl)acrylamide] |  | 6.00 to 7.00 |
| C=CC(=O)Nc1cccc(Oc2c(Cl)cnc3[nH]c(-c4ccc([S+](C)[O-])cc4)nc23)c1 (stereo not shown) [Example 7, N-(3-(6-chloro-2-(4-(methylsulphinyl)phenyl)-3H-imidazo[4,5-b]pyridin-7-yloxy)phenyl)acrylamide] |  | ≥ 7.30 |
| C=CC(=O)Nc1cccc(Oc2c(Cl)cnc3[nH]c(-c4ccc(C(=O)N(C)C)cc4)nc23)c1 [Example 8, 4-(7-(3-acrylamidophenoxy)-6-chloro-3H-imidazo[4,5-b]pyridin-2-yl)-N,N-dimethylbenzamide] | 7.00 to 7.30 | ≥ 7.30 |
| C=CC(=O)Nc1cccc(Oc2c(Cl)cnc3[nH]c(-c4ccc(C(=O)O)cc4)nc23)c1 [Example 9, 4-(7-(3-acrylamidophenoxy)-6-chloro-3H-imidazo[4,5-b]pyridin-2-yl)-benzoic acid] |  | 6.00 to 7.00 |
| C=CC(=O)Nc1cccc(Oc2c(Cl)cnc3[nH]c(-c4ccc(C(=O)NC5CCN(C)CC5)cc4)nc23)c1 [Example 10, 4-(7-(3-acrylamidophenoxy)-6-chloro-3H-imidazo[4,5-b]pyridin-2-yl)-N-(1-methylpiperidin-4-yl)benzamide] |  | 7.00 to 7.30 |
| C=CC(=O)Nc1cccc(Oc2c(Cl)cnc3[nH]c(-c4ccc(CN(C)C)cc4)nc23)c1 [Example 11, N-(3-(6-chloro-2-(4-((dimethylamino)methyl)phenyl)-3H-imidazo[4,5-b]pyridin-7-yloxy)phenyl)acrylamide] | ≥ 7.30 | ≥ 7.30 |
| C=CC(=O)Nc1cccc(Oc2c(Cl)cnc3[nH]c(-c4ccc(CN(C)CC)cc4)nc23)c1 [Example 12, N-(3-(6-chloro-2-(4-((ethyl(methyl)amino)methyl)phenyl)-3H-imidazo[4,5-b]pyridin-7-yloxy)phenyl)acrylamide] | ≥ 7.30 | ≥ 7.30 |
| C=CC(=O)Nc1cccc(Oc2c(Cl)cnc3[nH]c(-c4ccc(CN(CC)CC)cc4)nc23)c1 [Example 13, N-(3-(6-chloro-2-(4-((diethylamino)methyl)phenyl)-3H-imidazo[4,5-b]pyridin-7-yloxy)phenyl)acrylamide] | ≥ 7.30 | ≥ 7.30 |
| C=CC(=O)Nc1cccc(Oc2c(Cl)cnc3[nH]c(-c4ccc(CN5CCCC5)cc4)nc23)c1 [Example 14, N-(3-(6-chloro-2-(4-(pyrroldin-1-ylmethyl)phenyl)-3H-imidazo[4,5-b]pyridin-7-yloxy)phenyl)acrylamide] | ≥ 7.30 | ≥ 7.30 |
| C=CC(=O)Nc1cccc(Oc2c(Cl)cnc3[nH]c(-c4ccc(CN5CCCCC5)cc4)nc23)c1 [Example 15, N-(3-(6-chloro-2-(4-(piperidin-1-ylmethyl)phenyl)-3H-imidazo[4,5-b]pyridin-7-yloxy)phenyl)acrylamide] | ≥ 7.30 | ≥ 7.30 |
| C=CC(=O)Nc1cccc(Oc2c(Cl)cnc3[nH]c(-c4ccc(CN5CCOCC5)cc4)nc23)c1 [Example 16, N-(3-(6-chloro-2-(4-(morpholinomethyl)phenyl)-3H-imidazo[4,5-b]pyridin-7-yloxy)phenyl)acrylamide] | ≥ 7.30 | 7.00 to 7.30 |
| C=CC(=O)Nc1cccc(Oc2c(Cl)cnc3[nH]c(-c4ccc(CN5CCN(C)CC5)cc4)nc23)c1 [Example 17, N-(3-(6-chloro-2-(4-((4-methylpiperazin-1-yl)methyl)phenyl)-3H-imidazo[4,5-b]pyridin-7-yloxy)phenyl)acrylamide] | ≥ 7.30 | 7.00 to 7.30 |
| C=CC(=O)Nc1cccc(Oc2c(Cl)cnc3[nH]c(-c4ccc(OC)cc4)nc23)c1 [Example 18, N-(3-(6-chloro-2-(4-methoxyphenyl)-3H-imidazo[4,5-b]pyridin-7-yloxy)phenyl)acrylamide] |  | 6.00 to 7.00 |
| C=CC(=O)Nc1cccc(Oc2c(Cl)cnc3[nH]c(-c4ccncc4)nc23)c1 [Example 19, N-(3-(6-chloro-2-(pyridin-4-yl)-3H-imidazo[4,5-b]pyridin-7-yloxy)phenyl)acrylamide] | ≥ 7.30 | 6.00 to 7.00 |
| C=CC(=O)Nc1cccc(Oc2ccnc3[nH]c(-c4ccc(N5CCN(C)CC5)cc4)nc23)c1 [Example 20, N-(3-(2-(4-(4-methylpiperazin-1-yl)phenyl)-3H-imidazo[4,5-b]pyridin-7-yloxy)phenyl)acrylamide] | 6.00 to 7.00 | 6.00 to 7.00 |
